Laboratory results: patent US5616615A, “Enaminone esters” (priority 1995, dated 1997)
Where two headings read alike, the source gives them in different places.

Legend:
[1] = test system: Subcutaneous Pentylenetetrazol seizure; test: sc Met subcutaneous pentylenetetrazol (Metrazol) seizure test, mice; format: in vivo; details: for responders at 300 mg/kg / responders at 100 mg/kg: Mus musculus, sc
Description: 2. sc Met--Subcutaneous Pentylenetetrazol (Metrazol^R) Seizure Test
The animal is observed for 30 minutes. Failure to observe even a threshold seizure (a single episode of clonic spasms of at least 5 seconds duration) is defined as protection and the results are expressed as the number of animals protected/the number of animals tested.

seizures = test: Anticonvulsant evaluation (ASP phase I / overall); format: in vivo, mice; details: Mus musculus, ip, read-out: ASP Classification
Description: (§1) The first phase of the ADD Program involved performing tests on male Carworth Farms #1 mice. […] Three tests were performed:
(§2) Maximal electroshock seizures are elicited with a 60-cycle alternating current of 50 mA intensity (5-7 times that necessary to elicit minimal electroshock seizures) delivered via corneal electrodes for 0.2 seconds. A drop of 0.9% saline is instilled in the eye prior to application of the electrodes in order to […].
The animal is observed for 30 minutes.

in vivo [2] = test: in vivo
Description: as §1
In the second phase of the ADD program protocol, estimates of anticonvulsant activity and neurotoxicity are quantified. The median effective dose (ED50) in the MES, sc Met, and rotorod test is determined. In the case of a compound with apparent activity in only one anticonvulsant test, testing is carried out in the other up to, and in some cases beyond, doses which produce neurological deficit. Compounds which fail to produce minimal neurological deficit are tested whenever possible to doses ten times their lowest anticonvulsant ED50. […] The rotorod ED50 is determined at the time of the peak neurologic deficit.

[3] = test system: Maximal electroshock seizures; test: MES maximal electroshock seizure test, mice ip; format: in vivo; parameters: TPE (time of peak effect), activity: unit not given here; details: for anti-MES protecting ability: Phase I
Description: Three tests were performed:
1. MES--Electroshock Seizure Test
as §2

[4] = test system: Maximal electroshock seizures; test: Phase VI oral MES test, rats; format: in vivo; details: for responders at 50 mg/kg: Rattus norvegicus
From the text: as §2
(§3) This oral screen is designated as phase VI.

in vivo [5] = details: rat, po, 50 mg/kg
From the text: as §3

[6] = 0.5 h, 300 mg/kg, 30 min, read-out: scMet, animals protected/tested (converted)
[7] = 4 h, 300 mg/kg, 4 h, read-out: scMet, animals protected/tested (converted)
[8] = Mus musculus, ip, 0.5 h, 300 mg/kg, 30 min, read-out: MES, animals protected/tested
[9] = Mus musculus, ip, 2 h, Phase II, 100 mg/kg, 2.00 h, read-out: MES, animals protected/tested (converted)
[10] = Mus musculus, ip, 3 h, Phase II, 100 mg/kg, 3.00 h, read-out: MES, animals protected/tested (converted)
[11] = Mus musculus, ip, 4 h, 300 mg/kg, 4 h, read-out: MES, animals protected/tested
[12] = 0.5 h, 100 mg/kg, 30 min, read-out: scMet, animals protected/tested (converted)
[13] = 4 h, 100 mg/kg, 4 h, read-out: scMet, animals protected/tested (converted)
[14] = 0.5 h, oral, 50 mg/kg, 0.50 h, read-out: MES, animals protected/tested (converted)
[15] = oral, 50 mg/kg, 0.25 h, read-out: MES, animals protected/tested (converted)
[16] = oral, 50 mg/kg, 1.00 h, read-out: MES, animals protected/tested (converted)
[17] = oral, 50 mg/kg, 2.00 h, read-out: MES, animals protected/tested (converted)
[18] = Mus musculus, ip, 0.5 h, 100 mg/kg, 30 min, read-out: MES, animals protected/tested (converted)
[19] = Mus musculus, ip, 0.5 h, Phase II, 0.50 h, read-out: MES, animals protected/tested
[20] = Mus musculus, ip, 0.5 h, Phase II, 0.50 h, read-out: MES, animals protected/tested (converted)
[21] = Mus musculus, ip, 4 h, 100 mg/kg, 4 h, read-out: MES, animals protected/tested (converted)
[22] = Mus musculus, ip, 0.25 h, mice ip, 0.25 h, read-out: MES, animals protected/tested (converted)
[23] = Mus musculus, ip, 0.5 h, mice ip, 0.50 h, read-out: MES, animals protected/tested (converted)
[24] = Mus musculus, ip, 1 h, mice ip, 1.00 h, read-out: MES, animals protected/tested (converted)
[25] = Mus musculus, ip, 2 h, mice ip, 2.00 h, read-out: MES, animals protected/tested (converted)
[26] = Mus musculus, ip, 4 h, mice ip, 4.00 h, read-out: MES, animals protected/tested (converted)
[27] = oral, 50 mg/kg, 4.00 h, read-out: MES, animals protected/tested (converted)
[28] = 0.5 h, read-out: scMet, animals protected/tested
[29] = 4 h, read-out: scMet, animals protected/tested
[30] = Mus musculus, ip, 0.5 h, read-out: MES, animals protected/tested
[31] = Mus musculus, ip, 4 h, read-out: MES, animals protected/tested

SMILES	responders at 300 mg/kg [1, 6] [%]	responders at 300 mg/kg [1, 7] [%]	minimal effective dose (seizures; Phase I) [mg/kg]	Tox (rotorod), animals toxic/tested (in vivo [2]; mouse, in vivo, 100 mg/kg)	responders at 300 mg/kg [3, 8] [%]	responders at 300 mg/kg [3, 11] [%]	responders at 100 mg/kg [1, 12] [%]	responders at 100 mg/kg [1, 13] [%]	responders at 50 mg/kg [4, 14] [%]	responders at 50 mg/kg [4, 15] [%]	responders at 50 mg/kg [4, 16] [%]	responders at 50 mg/kg [4, 17] [%]	Tox, animals toxic/tested (in vivo [5])	responders at 100 mg/kg [3, 18] [%]	responders at 100 mg/kg [3, 21] [%]	further results
COC(=O)C1C(=O)C=C(Nc2ccc([N+](=O)[O-])cc2)CC1(C)C (stereo not drawn) [Compound 118]	0	0	> 100	0/2	0	100										responders at 100 mg/kg [3, 9]: 0%; responders at 100 mg/kg [3, 10]: 0%
COC(=O)C1C(=O)C=C(Nc2ccc(C(F)(F)F)cc2)CC1(C)C (stereo not drawn) [Compound 121]	0	0	< 100		100	100	0	0	75	75	100	100	0/4	100	100	Tox (rotorod), animals toxic/tested (in vivo [2]; mouse, in vivo, 3 mg/kg): 0/4; Tox (rotorod), animals toxic/tested (in vivo [2]; mouse, in vivo, 10 mg/kg): 0/4; responders at 3 mg/kg [3, 19]: 0%; responders at 10 mg/kg [3, 20]: 0%
CCOC(=O)C1C(=O)C=C(Nc2ccc(Cl)cc2)CC1C (stereo not drawn) [Compound 122]	100	0	< 100		100	100	0	0	100	75	75	100	0/4	100	0	responders at 300 mg/kg ([1]; 0.5 h, 300 mg/kg, 30 min, second trial, read-out: scMet, animals protected/tested (converted)): 50%; Tox (rotorod), animals toxic/tested (in vivo [2]; mouse, in vivo, 3 mg/kg): 0/4; Tox (rotorod), animals toxic/tested (in vivo [2]; mouse, in vivo, 10 mg/kg): 0/4; responders at 10 mg/kg [3, 22]: 75%; responders at 3 mg/kg [3, 19]: 0%; responders at 10 mg/kg [3, 20]: 25%; responders at 10 mg/kg [3, 23]: 75%; responders at 10 mg/kg [3, 24]: 100%; responders at 10 mg/kg [3, 25]: 25%; responders at 10 mg/kg [3, 26]: 25%; anti-MES protecting ability [3]: showed anti-MES protecting ability
CCOC(=O)C1C(=O)C=C(Nc2ccc(Br)cc2)CC1C (stereo not drawn) [Compound 123]	0	0	< 100		100	100	0	0	100	100	100	100	0/4	100	66.7	responders at 50 mg/kg [4, 27]: 100%; Tox, animals toxic/tested (in vivo [2]; mouse, in vivo, ip, 100 mg/kg): 0/8; responders at 10 mg/kg [3, 22]: 75%; responders at 10 mg/kg [3, 23]: 75%; responders at 10 mg/kg [3, 24]: 75%; responders at 10 mg/kg [3, 25]: 50%; responders at 10 mg/kg [3, 26]: 0%; anti-MES protecting ability [3]: showed anti-MES protecting ability
CCOC(=O)C1C(=O)C=C(Nc2cc(OC)ccc2OC)CC1C (stereo not drawn) [Compound 128]	0	0	> 100	0/2	100	0										responders at 100 mg/kg ([3]; Mus musculus, ip, 0.25 h, Phase II, 100 mg/kg, 0.25 h, read-out: MES, animals protected/tested (converted)): 0%; responders at 100 mg/kg ([3]; Mus musculus, ip, 1 h, Phase II, 100 mg/kg, 1.00 h, read-out: MES, animals protected/tested (converted)): 0%
CCc1ccc(NC2=CC(=O)CC(C)(C)C2)cc1 [Compound 140]	0	0	> 100	0/2	0	100										responders at 100 mg/kg [3, 9]: 0%; responders at 100 mg/kg [3, 10]: 0%
CC1(C)CC(=O)C=C(NCCc2ccccc2)C1 [Compound 145]																responders at 300 mg/kg [1, 28]: 0%; responders at 300 mg/kg [1, 29]: 0%; minimal effective dose (seizures): > 100 mg/kg; Tox, animals exhibiting toxicity/tested (in vivo [2]; 300 mg/kg, 30 min): 4/4; Tox, animals exhibiting toxicity/tested (in vivo [2]; 300 mg/kg, 4 h): 0/2; Tox (rotorod), animals toxic/tested (in vivo [2]; Phase II, 100 mg/kg, 0.25 h): 0/2; Tox (rotorod), animals toxic/tested (in vivo [2]; Phase II, 100 mg/kg, 1.00 h): 0/2; responders at 100 mg/kg ([3]; Mus musculus, ip, 0.25 h, read-out: MES, animals protected/tested): 0%; responders at 300 mg/kg [3, 30]: 100%; responders at 100 mg/kg ([3]; Mus musculus, ip, 1 h, read-out: MES, animals protected/tested): 0%; responders at 300 mg/kg [3, 31]: 0%
O=C1C=C(NCCc2ccccc2)CCC1 [Compound 149]																responders at 100 mg/kg [1, 28]: 0%; responders at 100 mg/kg [1, 29]: 0%; responders at 300 mg/kg [1, 29]: 0%; minimal effective dose (seizures): < 100 mg/kg; responders at 50 mg/kg ([4]; po, 0.25 h, read-out: MES, animals protected/tested): 100%; responders at 50 mg/kg ([4]; po, 0.5 h, read-out: MES, animals protected/tested): 100%; responders at 50 mg/kg ([4]; po, 1 h, read-out: MES, animals protected/tested): 75%; responders at 50 mg/kg ([4]; po, 2 h, read-out: MES, animals protected/tested): 25%; responders at 50 mg/kg ([4]; po, 4 h, read-out: MES, animals protected/tested): 25%; Tox, animals exhibiting toxicity/tested (in vivo [2]; 100 mg/kg, 30 min): 4/8; Tox, animals exhibiting toxicity/tested (in vivo [2]; 100 mg/kg, 4 h): 0/4; Tox, animals exhibiting toxicity/tested (in vivo [2]; 300 mg/kg, 4 h): 1/2; responders at 100 mg/kg [3, 30]: 100%; responders at 300 mg/kg [3, 30]: 100%; responders at 100 mg/kg [3, 31]: 0%; responders at 300 mg/kg [3, 31]: 0%
O=C1C=C(Nc2ccc(Cl)cc2)CC1 [Compound 152, 3-(4'-Chlorophenyl)amino-2-cyclopentenone]	0	0	< 100		100	0	0	0	25	0	25	75	0/4	33.3	0	responders at 50 mg/kg [4, 27]: 50%
O=C1C=C(NCCc2ccccc2)CCC1 [Compound 154]				0/2									0/4			scMet, animals protected/tested ([1]; 300 mg/kg, 30 min): 0/1; scMet, animals protected/tested ([1]; 300 mg/kg, 4 h): 0/1; MES, animals protected/tested ([4]; oral, 50 mg/kg, 0.25 h): 0/4; MES, animals protected/tested ([4]; oral, 50 mg/kg, 0.50 h): 0/4; MES, animals protected/tested ([4]; oral, 50 mg/kg, 1.00 h): 0/4; MES, animals protected/tested ([4]; oral, 50 mg/kg, 2.00 h): 0/4; MES, animals protected/tested ([4]; oral, 50 mg/kg, 4.00 h): 0/4; MES, animals protected/tested ([3]; 300 mg/kg, 30 min): 1/1; MES, animals protected/tested ([3]; 300 mg/kg, 4 h): 0/1; MES, animals protected/tested ([3]; Phase II, 100 mg/kg, 0.25 h): 2/2; MES, animals protected/tested ([3]; Phase II, 100 mg/kg, 1.00 h): 0/2
CCCC(CCC)C(=O)O [valproate, reference compound]																TPE (time of peak effect), toxicity (in vivo [2]; Phase II, ip, commercial products, onset of ataxia): 2; ED50 ([3]; Mus musculus, Phase II, ip, time of peak effect): 665 mg/kg; TPE (time of peak effect), activity ([3]; Phase II, ip): 1
